Assay results published in US5484780A, “Angiotensin II antagonists” (Eli Lilly and Company, priority 1994, dated 1996).
“And” between values parts separate entries of the source, which are not always exact repeats. Equal entries are not always repeated.

target: T1, angiotensin-induced vasoconstriction (rabbit aorta) (Oryctolagus cuniculus, UniProt P34976); assay: Rabbit Aorta Test System: antagonism of angiotensin II contraction of aortic rings; set-up: species or system New Zealand white rabbits; conditions: contraction to AII 10^-10 to 10^-7 M, 30 minutes incubation with compound; pA2 = -log KB
T1 construct: The thoracic aortas were removed and cleaned of excess fat and connective tissue; from tissue; host or cells: thoracic aorta rings of New Zealand white rabbits (animals from Hazelton)
T1 sequence (P34976 1-359): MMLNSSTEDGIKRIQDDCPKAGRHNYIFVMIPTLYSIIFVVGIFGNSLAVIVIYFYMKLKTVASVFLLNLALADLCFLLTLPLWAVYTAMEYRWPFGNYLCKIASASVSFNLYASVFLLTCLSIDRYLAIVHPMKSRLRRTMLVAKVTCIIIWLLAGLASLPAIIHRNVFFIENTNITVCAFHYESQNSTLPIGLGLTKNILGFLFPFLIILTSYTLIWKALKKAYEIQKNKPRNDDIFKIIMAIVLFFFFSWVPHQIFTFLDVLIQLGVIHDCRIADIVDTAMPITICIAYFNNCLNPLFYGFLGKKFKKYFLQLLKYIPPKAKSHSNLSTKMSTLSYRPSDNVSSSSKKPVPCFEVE
Procedure: As previously discussed, the compounds of Formula I are potent effective antagonists of angiotensin II. The ability of representative compounds of Formula I to block angiotensin II receptor binding was determined using the adrenal glomerulosa assay. The ability to antagonize angiotensin-induced vasoconstriction was evaluated in the rabbit aorta test system.
New Zealand white rabbits (Hazelton, 2-3 kg) were sacrificed by cervical dislocation. The thoracic aortas were removed and cleaned of excess fat and connective tissue. Rings of tissue (3 mm wide) were mounted in 10 ml tissue baths between 2 L-shaped stainless steel hooks. The lower hook was attached to a stationary rod. The upper hook was attached to a force displacement transducer (Grass model FT.03). The bath chambers were maintained at 37° C., aerated with 95% 02 /5% C02, and contained physiological solution of the following composition (mM): NaCl, 117; glucose, 5.6; NaH2 PO4, 1.0; MgS04, 0.7; KCl, 5.2; CaCl2, 1.8; NaHCO3, 26; and phentolamine HCl, 0.003.
Rings were equilibrated for 1 hour with 2 g of tension. During the equilibration period, the tissues were washed by overflow every 15 minutes. Rings were then exposed to 10^-8 M angiotensin II (AII) and were allowed to contract until a steady state was reached. Tissues were then washed every 15 minutes for 1 hour. This was repeated every hour until the AII response stabilized. A cumulative concentration response curve to AII (10^-10 to 10^-7 M) was then obtained. At the conclusion of the concentration response curve, tissues were washed every 2 minutes until baseline tension was reached, then every 15 minutes for 30 minutes. Compounds were added in a volume of 10 μl DMSO and allowed to incubate for 30 minutes before repeating the concentration response curve to AII. Contractions to AII were expressed as a percent of the maximum contraction obtained in the control curve (the first AII concentration response curve). EC50 's (concentration that contracted the tissues to 1/2 the control maximum) for each curve were calculated using a 4 parameter logistics model (NonLin, SAS Institute). Potency data for each compound tested are expressed as the pA2 (defined as-log KB, where KB =[molar concentration of antagonist]/[(EC50 AII with antagonist/EC50 AII without antagonist)-1]).

| Structure (SMILES) | Rabbit Aorta (pA2) | Kb |
| --- | --- | --- |
| CCCCCC[C@H](C(=O)N1C[C@@H](Oc2ccc([S+](C)[O-])cc2)C[C@H]1C(=O)O)n1cnc(NC(=O)c2ccccc2S(=O)(=O)O)c1 (stereo partly shown) [Example 31] | 8.9 | – |
| CCCCCC[C@H](C(=O)N1C[C@@H](Oc2ccc(O)cc2)C[C@H]1C(=O)O)n1cnc(NC(=O)c2cccc(O)c2C(=O)O)c1 [Example 81] | – | 1.58 nM |
| CCCCCC[C@H](C(=O)N1C[C@@H](Oc2ccc(C(=O)O)cc2)C[C@H]1C(=O)O)n1cnc(NC(=O)c2cccc(O)c2C(=O)O)c1 [Example 85] | – | 1.26 nM |
| CCCCCC[C@H](C(=O)N1C[C@@H](Oc2ccc(OC)cc2)C[C@H]1C(=O)O)n1cnc(NC(=O)c2ccccc2-c2nn[nH]n2)c1 [Example 75] | – | 1 nM |
| CCCCCC[C@H](C(=O)N1C[C@@H](Oc2ccc(C(F)(F)F)cc2)C[C@H]1C(=O)O)n1cnc(NC(=O)c2ccccc2S(=O)(=O)O)c1 [Example 29] | 7.5 | – |
| CCCCCC[C@H](C(=O)N1C[C@@H](Oc2ccc(NS(=O)(=O)C(F)(F)F)cc2)C[C@H]1C(=O)O)n1cnc(NC(=O)c2ccccc2S(=O)(=O)O)c1 [Example 93, (R)-1-[1-oxo-2-[4-(2-sulfobenzoyl)amino-1H-imidazol-1-yl]octyl]-4-(cis)-((4-N-triflouromethanesulfonamido)-phenoxy)-L-proline] | 8.9 | – |
| CCCCCC[C@H](C(=O)N1C[C@@H](Oc2ccc3oc4ccccc4c3c2)C[C@H]1C(=O)O)n1cnc(NC(=O)c2ccccc2S(=O)(=O)O)c1 [Example 71] | – | 25.1 nM |
| CCCCCC[C@H](C(=O)N1C[C@@H](Oc2ccc(OC(F)(F)F)cc2)C[C@H]1C(=O)O)n1cnc(NC(=O)c2ccccc2S(=O)(=O)O)c1 [Example 53] | – | 10 nM |
| CCCCCC[C@H](C(=O)N1C[C@@H](Oc2ccc(S(C)(=O)=O)cc2)C[C@H]1C(=O)O)n1cnc(NC(=O)c2ccccc2S(=O)(=O)O)c1 [Example 32] | – | 1.26 nM |
| CCCCCC[C@H](C(=O)N1C[C@@H](Oc2ccc(OCC(=O)O)cc2)C[C@H]1C(=O)O)n1cnc(NC(=O)c2ccccc2-c2nn[nH]n2)c1 [Example 79] | – | 0.501 nM |
| CCCCCC[C@H](C(=O)N1C[C@@H](Oc2ccc3ccccc3c2)C[C@H]1C(=O)O)n1cnc(NC(=O)c2cccc(O)c2C(=O)O)c1 [Example 89] | – | 31.6 nM |
| CCCCCC[C@H](C(=O)N1C[C@@H](Oc2ccc3oc(C(=O)O)cc3c2)C[C@H]1C(=O)O)n1cnc(NC(=O)c2ccccc2S(=O)(=O)O)c1 [Example 70] | – | 0.501 nM |
| CCCCCC[C@H](C(=O)N1C[C@@H](Oc2ccc(OC)c(OC)c2)C[C@H]1C(=O)O)n1cnc(NC(=O)c2ccccc2S(=O)(=O)O)c1 [Example 60] | – | 15.8 nM |
| CCCCCC[C@H](C(=O)N1C[C@@H](Oc2ccc(-n3ccnc3)cc2)C[C@H]1C(=O)O)n1cnc(NC(=O)c2ccccc2S(=O)(=O)O)c1 [Example 38] | – | 1.26 nM |
| CCCCCC[C@H](C(=O)N1C[C@@H](Oc2ccc3sccc3c2)C[C@H]1C(=O)O)n1cnc(NC(=O)c2ccccc2S(=O)(=O)O)c1 [Example 72] | – | 3.16 nM |
| CCCCCC[C@H](C(=O)N1C[C@@H](Oc2ccc(OC(C)(C)C(=O)O)cc2)C[C@H]1C(=O)O)n1cnc(NC(=O)c2ccccc2S(=O)(=O)O)c1 [Example 58] | – | 0.794 nM |
| CCCCCC[C@H](C(=O)N1C[C@@H](Oc2ccc(C(N)=O)cc2)C[C@H]1C(=O)O)n1cnc(NC(=O)c2ccccc2S(=O)(=O)O)c1 [Example 34] | – | 3.16 nM |
| CCCCCCC(C(=O)N1CCNC1=S)n1cnc(NC(=O)c2ccccc2S(=O)(=O)O)c1 (stereo not shown) [Example 6, 2-[[[1-[1-[(2-thioxo-1-imidazolidinyl)carbonyl]-heptyl]-1H-imidazol-4-yl]amino]carbonyl]benzenesulfonic acid] | 6.3 | – |
| CCCCCC[C@H](C(=O)N1C[C@@H](Oc2ccc3ccccc3c2)C[C@H]1C(=O)O)n1cnc(NC(=O)c2ccccc2S(=O)(=O)O)c1 [Example 61] | – | 3.16 nM |
| CCCCCC[C@H](C(=O)N1C[C@@H](Oc2ccc(CC(=O)N(C)CC(=O)O)cc2)C[C@H]1C(=O)O)n1cnc(NC(=O)c2ccccc2S(=O)(=O)O)c1 [Example 46] | – | 2 nM |

| Structure (SMILES) | Rabbit Aorta (pA2) | Kb |
| --- | --- | --- |
| CCCCCC[C@H](C(=O)N1C[C@@H](Oc2ccc(OC)c(OC)c2)C[C@H]1C(=O)O)n1cnc(NC(=O)c2cccc(O)c2C(=O)O)c1 [Example 90] | – | 20 nM |
| CCCCCC[C@H](C(=O)N1C[C@@H](Oc2ccc(OCC(C)C)cc2)C[C@H]1C(=O)O)n1cnc(NC(=O)c2ccccc2S(=O)(=O)O)c1 [Example 51] | – | 12.6 nM |
| CCCCCCC(C(=O)N1CCC[C@@H]1C(=O)O)n1cnc(NC(=O)c2ccccc2S(=O)(=O)O)c1 (stereo partly shown) [Example 11] | – | 200 nM and 251 nM |
| CCCCCC[C@H](C(=O)N1C[C@@H](Oc2ccc(OC(C)(C)C)cc2)C[C@H]1C(=O)O)n1cnc(NC(=O)c2ccccc2-c2nn[nH]n2)c1 [Example 76] | – | 31.6 nM |
| CCCCCC[C@H](C(=O)N1C[C@@H](Oc2ccc(CC(=O)O)cc2)C[C@H]1C(=O)O)n1cnc(NC(=O)c2ccccc2S(=O)(=O)O)c1 [Example 36] | – | 0.398 nM |
| O=C(Nc1cn(C(CCCCC(F)(F)F)C(=O)N2C[C@@H](Oc3ccccc3)C[C@H]2C(=O)O)cn1)c1ccccc1S(=O)(=O)O (stereo partly drawn) [Example 16, 1-[1-Oxo-2-[4-(2-sulfobenzoyl)amino-1H-imidazol-1-yl]-7,7,7-trifluoroheptyl]-4-cis-phenoxy-L-proline] | – | 50.1 nM |
| CCCCCC[C@H](C(=O)N1C[C@@H](Oc2ccc(NS(C)(=O)=O)cc2)C[C@H]1C(=O)O)n1cnc(NC(=O)c2ccccc2S(=O)(=O)O)c1 [Example 92, 1-[1-oxo-2-[4-(2-sulfobenzoyl)amino-1H-imidazol-1-yl]octyl]-4-cis-[(4-N-methanesulfonamido)-phenoxy]-L-proline] | – | 0.126 nM |
| CCCCCC[C@H](C(=O)N1C[C@@H](Oc2ccc(C)cc2)C[C@H]1C(=O)O)n1cnc(NC(=O)c2ccccc2S(=O)(=O)O)c1 [Example 22] | – | 0.398 nM |
| CCCCCC[C@H](C(=O)N1C[C@@H](Oc2ccc(CNS(C)(=O)=O)cc2)C[C@H]1C(=O)O)n1cnc(NC(=O)c2ccccc2S(=O)(=O)O)c1 [Example 95] | – | 0.158 nM |
| CCCCC(C(=O)N1C[C@@H](Oc2ccccc2)C[C@H]1C(=O)O)n1cnc(NC(=O)c2ccccc2S(=O)(=O)O)c1 (single isomer, unassigned) [Example 14, 1-[1-oxo-2-[4-(2-sulfobenzoyl)amino-1H-imidazol-1-yl]hexyl]-4-cis-phenoxy-L-proline] | – | 31.6 nM and 126 nM |
| CCCCCC[C@H](C(=O)N1C[C@@H](Oc2ccc3c(c2)OCO3)C[C@H]1C(=O)O)n1cnc(NC(=O)c2ccccc2S(=O)(=O)O)c1 [Example 59] | – | 0.631 nM |
| CCCCCC[C@H](C(=O)N1C[C@@H](Oc2ccc(CC(=O)O)cc2)C[C@H]1C(=O)O)n1cnc(NC(=O)c2ccccc2-c2nn[nH]n2)c1 [Example 77] | – | 1.58 nM |
| CCCCCC[C@H](C(=O)N1C[C@@H](Oc2ccc(CC(=O)O)cc2)C[C@H]1C(=O)O)n1cnc(NC(=O)c2cccc(O)c2C(=O)O)c1 [Example 86] | – | 0.794 nM |
| CCCCCC[C@H](C(=O)N1C[C@@H](Oc2ccc(C3CCCC3)cc2)C[C@H]1C(=O)O)n1cnc(NC(=O)c2ccccc2S(=O)(=O)O)c1 [Example 26] | – | 2.51 nM |
| CCCCCC[C@H](C(=O)N1C[C@@H](Oc2ccc(S(=O)(=O)NC)cc2)C[C@H]1C(=O)O)n1cnc(NC(=O)c2ccccc2S(=O)(=O)O)c1 [Example 40] | – | 0.501 nM |
| CCCCCC[C@H](C(=O)N1C[C@@H](Oc2ccc(OCC)cc2)C[C@H]1C(=O)O)n1cnc(NC(=O)c2ccccc2S(=O)(=O)O)c1 [Example 48] | – | 0.631 nM |
| CCCCCC[C@H](C(=O)N1C[C@@H](Oc2ccc3c(c2)CCC3)C[C@H]1C(=O)O)n1cnc(NC(=O)c2cccc(O)c2C(=O)O)c1 [Example 88] | – | 6.31 nM |
| CCCCCC[C@H](C(=O)N1C[C@@H](Oc2ccc(C#N)cc2)C[C@H]1C(=O)O)n1cnc(NC(=O)c2cccc(O)c2C(=O)O)c1 [Example 87] | – | 31.6 nM |
| CCCCCC[C@H](C(=O)N1C[C@@H](Oc2ccc(OCC)cc2)C[C@H]1C(=O)O)n1cnc(NC(=O)c2cccc(O)c2C(=O)O)c1 [Example 83] | 8.9 | – |
| CCCCCC[C@H](C(=O)N1C[C@@H](Oc2ccc(SC)cc2)C[C@H]1C(=O)O)n1cnc(NC(=O)c2ccccc2S(=O)(=O)O)c1 [Example 30] | – | 0.631 nM |
